For one data set, the system named is hCD39 protein. The data set is described as follows: Concentration- and time-dependent hCD39 protein knockdown in HDLM-2 cells (flow cytometry). The format is cell-based, human. The note with it: for Inhibition [%] (Protein/mRNA): HDLM-2, CD39 protein; for inhibition of hCD39 protein: HDLM-2 cells, three, four and six days, different concentrations. The procedure:
FIG. 8 depicts concentration- and time-dependent CD39 protein knockdown by A04040H (SEQ ID No. 3) and A04045H (SEQ ID No. 4). Analysis of CD39 protein expression by flow cytometry in HDML-2 cells is given after treatment with the indicated antisense oligonucleotides for 3, 4 and 6 days. As treatment control, cells were treated with neg1 for 3, 4 and 6 days at the indicated concentrations. Relative expression compared to untreated control cells (=1) is depicted.
HDLM-2 cells were therefore treated with different concentrations of the respective antisense oligonucleotide for three, four and six days, respectively. Protein expression was analyzed by flow cytometry using the CD39 antibody (clone A1) and 7-AAD to investigate viability. […] Table 13summarizes protein knockdown efficiency of the selected human CD39 antisense oligonucleotides A04040H (SEQ ID No. 3) and A04045H (SEQ ID No. 4) in HDLM-2 cells at different time points: […]
(In general: Flow cytometry measures light scatter and fluorescence of single cells or particles in a stream.)

The target in data set [1] is T1, hCD39 (Homo sapiens, UniProt P49961).
T1 construct: endogenous in cells; host or cells: JIYOYE cells
T1 sequence (P49961 1-510): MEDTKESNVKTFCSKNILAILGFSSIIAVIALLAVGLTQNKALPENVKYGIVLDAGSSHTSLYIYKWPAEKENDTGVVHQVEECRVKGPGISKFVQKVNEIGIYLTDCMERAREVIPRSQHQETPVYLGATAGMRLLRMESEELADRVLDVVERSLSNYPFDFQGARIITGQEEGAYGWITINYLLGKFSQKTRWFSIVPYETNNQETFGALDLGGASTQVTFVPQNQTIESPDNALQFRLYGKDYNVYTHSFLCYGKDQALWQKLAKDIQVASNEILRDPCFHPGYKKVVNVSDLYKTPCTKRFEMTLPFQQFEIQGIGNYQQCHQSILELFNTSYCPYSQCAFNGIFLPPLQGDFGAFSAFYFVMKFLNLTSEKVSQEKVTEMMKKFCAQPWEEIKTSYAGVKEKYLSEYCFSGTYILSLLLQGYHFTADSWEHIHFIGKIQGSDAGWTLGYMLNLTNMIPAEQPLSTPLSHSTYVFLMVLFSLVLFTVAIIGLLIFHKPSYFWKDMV
Description: ATP degradation in JIYOYE cells after hCD39 knockdown (ATP Bioluminescence Assay). The format is cell-based. The note with it: for Relative ATP levels in supernatants of JIYOYE cells 30 minutes after addition of ATP (vs. Medium control): 5 μM oligonucleotide 6 days or 20 μM ARL67156 1 h, 2 μM ATP added. On the procedure: FIG. 10A-10C depict effects of hCD39 knockdown on viability and ATP concentration in JIYOYE cells. JIYOYE cells were treated with the indicated antisense oligonucleotide A04040H (SEQ ID No.3) or neg1 for 6 days in total at 5 μM. Medium was replaced with fresh oligonucleotide-containing medium after 3 days and hCD39 protein knockdown efficacy was analyzed on day 6 by flow cytometry. Residual hCD39 expression and viability of oligonucleotide-treated cells is depicted compared to untreated cells (FIG. 10A-10B). After 6 days, 20 μM of the CD39 small molecular inhibitor ARL67156 trisodium salt was added to no ASO treated cells and incubated for 1 h at 37° C. Then, 2 μM of ATP was added to cells or cell culture medium without cells from each condition and ATP concentration of cell supernatants or cell culture medium was determined after 30 min using the ATP Bioluminescence Assay Kit (Roche) (FIG. 10C).
Adenosine is one major immunosuppressive molecule generated during ATP degradation by hCD39. ATP can be detected by an ATP Bioluminescence Assay (ATP Bioluminescence Assay Kit CLS II; Roche). JIYOYE cells were treated with 5 μM antisense oligonucleotide A04040H (SEQ ID No. 3) or the negative control oligonucleotide neg1 for 6 days (3+3). After 3 days, RPMI-1640 medium was replaced with fresh RPMI-1640 medium containing 5 μM of oligonucleotide. Protein knockdown efficacy (FIG. 10A) and viability (FIG. 10B) were analyzed after 6 days by flow cytometry. […] The same day, cells that were not treated with any antisense oligonucleotide were incubated for 1 hr at 37° C. with 20 μM of the CD39 small molecular inhibitor ARL67156 trisodium salt (TOCRIS). Then, 2 μM of ATP was added to cells or cell culture medium without cells derived from each condition and ATP concentration was measured in the cell supernatants or in cell culture medium after 30 min. […] Table 14 presents the effect of hCD39 knockdown on relative ATP levels in the cell culture supernatants of JIYOYE cells: […]

The test system of data set [2] is hCD39. Description: ATP degradation in primary human CD8+ T cells after hCD39 knockdown (ATP Bioluminescence Assay). The format is cell-based. The settings on record: for Relative ATP levels in supernatants of CD8+ T cells 30 minutes after addition of ATP: 5 μM oligonucleotide 6 days, medium = 1. The procedure:
FIG. 11A-11D show knockdown of hCD39 protein (FIG. 11A) and viability (FIG. 11B) of primary human CD8^+ T cells, isolated from peripheral blood using MACS. CD8^+ T cells were activated by plate-bound anti-human CD3 (OKT-3). Activated cells were treated with RPMI-1640 medium, medium supplemented with A04040H (SEQ ID No. 3), and medium supplemented with neg1 at 5 μM, respectively, for 6 days in total. After 3 days, medium was replaced with fresh medium containing 5 μM of A04040H (SEQ ID No. 3) and neg 1, respectively, and hCD39 protein knockdown efficacy (FIG. 11A) and viability (FIG. 11B) were analyzed on day 6 by flow cytometry. Residual hCD39 expression and viability (median of 7-AAD positive cells) is depicted compared to untreated cells (FIG. 11A-11B). The same day, cells were harvested, washed and re-plated at a constant cell number (150.000 cells/Well in a 96-Well plate) in triplicates. Then, 2 μM (FIG. 11C) or 20 μM (FIG. 11D) of ATP was added to cells or cell culture medium without cells and ATP concentration of cell supernatants or cell culture medium was determined after 30 min using the ATP Bioluminescence Assay Kit (Roche).
Additionally, the effect of hCD39 knockdown on ATP degradation was also analyzed in primary human CD8^+ T cells (FIG. 11A-11D). Activated T cells were treated with 5 μM antisense oligonucleotide A04040H (SEQ ID No. 3) or the negative control oligonucleotide neg1 for 6 days (3+3). After 3 days, RPMI-1640 medium was replaced with fresh RPMI-1640 medium containing […] of antisense oligonucleotide. Protein knockdown efficacy (FIG. 11A) and viability (FIG. 11B) were analyzed after 6 days by flow cytometry. […] On day 6, cells were re-plated at a constant cell number and ATP was added at concentrations of 2 μM (FIG. 11C) or 20 μM (FIG. 11D). ATP concentration was measured in the cell supernatants or in cell culture medium after 30 min (Table 15).

[3] abbreviates: JIYOYE cells, 5 μM, 6 days, 2 μM ATP, 30 min.

l = locked nucleic acid (LNA); d = 2'-deoxy (DNA)

On to “+G*+T*+T*T*G*T*G*T*G*A*G*A*G*C*+T*+T (antisense GTTTGTGTGAGAGCTT; sugars from the 5' end l3 d11 l2, all phosphorothioate, methylation of C not given here) [A04040H]”, for which the “Inhibition [%] (Protein/mRNA)” value with hCD39 protein (Day 3, 0.1 μM) was found to be 46.73%; with hCD39 protein (Day 3, 0.5 μM), 54.75%; with hCD39 protein (Day 3, 1 μM), 60.56%; in the data set with hCD39 protein (Day 3, 10 μM), 61.36%; in the data set on hCD39 protein (Day 4, 0.1 μM), 70.73%; in the data set with hCD39 protein (Day 4, 0.5 μM) it was 78.25%. The “Inhibition [%] (Protein/mRNA)” value is 76.96% in the data set with hCD39 protein (Day 4, 1 μM); 79.11% in the data set with hCD39 protein (Day 4, 10 μM); 87.37% in the data set on hCD39 protein (Day 6, 0.1 μM); 89.36% with hCD39 protein (Day 6, 0.5 μM); 84.12% in the data set on hCD39 protein (Day 6, 1 μM); 88.84% in the data set on hCD39 protein (Day 6, 10 μM). The “inhibition of hCD39 protein” value in the data set with hCD39 protein is on record as “potent inhibition of hCD39 protein after all indicated time points”. For the same substance, in the data set with hCD39 [1], the “Relative ATP levels in supernatants of JIYOYE cells 30 minutes after addition of ATP (vs. Medium control)” value was determined as 0.76. The “ATP concentration compared to cells treated with ARL67156” value with hCD39 [1] (setting [3]) amounted to 2 ×. Also, the “ATP concentration compared to cells treated with neg 1” value with hCD39 [1] (setting [3]) is “about 4 ×”. For the same substance, the ATP degradation efficacy entry is on record as “nearly abolished” in the data set with hCD39 [1] (setting [3]) and “nearly abolished” in the data set with hCD39 [2] (primary human CD8+ T cells, 5 μM, 6 days, 2 or 20 μM ATP, 30 min). The figures for the “Relative ATP levels in supernatants of CD8+ T cells 30 minutes after addition of ATP” value in the data set on hCD39 [2] (Added ATP (2 μmol/1)) and in the data set on hCD39 [2] (Added ATP (20 μmol/1)) were 0.59 and 0.89, respectively. Also, in the data set on hCD39 [2] (primary human CD8+ T cells, 5 μM, 6 days), the “ATP concentration compared to neg 1 treated cells” value is “about 7 ×”.

As to “+C*+G*+T*T*T*A*G*G*C*T*A*T*G*T*A*+C*+T*+T (CGTTTAGGCTATGTACTT; chemistry not fully specified) [neg1, negative control antisense oligonucleotide not hybridizing with CD39, described in WO2014154843 A1, reference compound]”, in the data set on hCD39 protein, the “inhibition of hCD39 protein” value was “no inhibitory effect”. For the same substance, in the data set with hCD39 [1], the “Relative ATP levels in supernatants of JIYOYE cells 30 minutes after addition of ATP (vs. Medium control)” value was determined as 0.19. The “Relative ATP levels in supernatants of CD8+ T cells 30 minutes after addition of ATP” value with hCD39 [2] (Added ATP (2 μmol/1)) was 0; in the data set with hCD39 [2] (Added ATP (20 μmol/1)) it was 0.12.

The record behind these values is patent US11959083B2, “Immunosuppression-reverting oligonucleotides inhibiting the expression of CD39” (Secarna Pharmaceuticals GmbH & Co. KG, priority 2016, dated 2024).
